Measured values published in patent publication US20100273750A1, “SEROTONIN RECEPTOR ANTAGONISTS FOR TREATING ARTHRITIS” (IMPERIAL INNOVATIONS LIMITED, priority 2007, published 2010).
“Also recorded” adds a separate entry of the source. Structures can show the parent of a compound that is named as a salt.

Legend:
[1] = test system: TLR7/8 ligand R-848 induced TNF; assay: R-848 induced TNF production in primary human macrophages (ELISA); conditions: 1 μg/ml R-848 for 6 hours
[2] = test system: rheumatoid synovial membrane cultures; assay: TNF production in rheumatoid synovial membrane cultures stimulated with TLR ligands (ELISA); format: cell-based, human
Method: (§1) Macrophages or RA synovial membrane cell cultures were stimulated with 10 ng/ml chloroform-extracted LPS, 10 ng/ml Pam3, 10 ng/ml Flagellin, 10 ng/ml Malp-2, 20 μg/ml poly IC, 2 μM CpG (human/mouse) or 1 μg/ml R-848 in complete media for 6 h. Supernatants from RA cultures were harvested after 24 hours. All reagents other than LPS were free from LPS contamination as assessed using the limulus amebocyte lysate (LAL) assay from Cambrex (USA).
(§2) Sandwich ELISAs were employed to measure TNF, (Pharmingen, UK). IP-10 (R&D, USA) and IL-1β (Bioscource. USA). Absorbance was read on a spectrophotometric ELISA plate reader (Labsystems Multiscan Biochromic) and analyzed using Ascent software V2.6 (Thermo Labsystems, Cambridge, United Kingdom). All results are expressed as the mean cytokine concentration±SD obtained from triplicate cultures per condition.
(§3) RA synovial membrane cells were isolated from patients undergoing joint replacement surgery as previously described (Foxwell et al., Proc. Natl. Acad. Sci. USA 95, 8211-8215, 1998). All patients gave written informed consent and the study was approved by the local ethics committee. Immediately after isolation, cells were used for mRNA analysis, stained by FACS or cultured at 1×10^5 cells/well in 96-well tissue culture plates (Falcon, UK) in RPMI 1640 containing 10% (v/v) FBS and 100 U/ml penicillin/streptomycin. Primary human synovial fibroblasts were cultured as described previously (Butler et al. Eur. Cytokine Netw. 5:441-8, 1994). Peripheral blood monocytes were isolated and cultured as previously described (Foxwell et al. Proc. Natl. Acad. Sci. USA 95, 8211-8215, 1998). Macrophages were derived from monocytes after differentiation for 4 days with 100 ng/ml M-CSF (PeproTech, UK). The mouse macrophage cell line RAW 264.7 was maintained in Dulbecco's modified Eagle's medium supplemented with 10% fetal bovine serum.
To check if these TLRs were functional in synovial membrane cultures, cells were stimulated with the appropriate TLR ligands at the time of seeding the cells (FIG. 5, Graph C). […]

[3] = test system: TLR4 ligand LPS induced TNF; assay: LPS induced TNF production in primary human macrophages (ELISA); format: cell-based; conditions: 30 minutes preincubation
Method: as §1, §2, §3
Primary human macrophages, murine RAW 264.7 cells and synovial fibroblasts were incubated with 30 μg/ml mianserine hydrochloride for 30 minutes and then stimulated for 6 hours with TLR ligands (R-848, Pam3, LPS, flagellin, malp-2, poly IC or CpG).

[4] = test system: RA synovial membrane cultures; assay: Spontaneous cytokine release from RA synovial membrane cultures (ELISA); format: cell-based, human
[5] = test system: TLR3 ligand poly IC induced IP-10; assay: Poly IC induced IP-10 production in human macrophages (ELISA); format: cell-based
Method: as §1, §2, §3
Primary human macrophages were incubated with 5 μg/ml of GBR12909, 5 μg/ml of clotrimazole, 5 μg/ml of Propidium iodide (PI), 30 μg/ml mianserine hydrochloride and 30 μg/ml promazine hydrochloride for 30 minutes and then stimulated for 6 hours with the TLR4 ligand LPS (FIG. 7A), with R848 a TLR7/8 ligand (FIG. 7, Graph B), or with poly IC a TLR3 ligand (FIG. 7C). Supernatants were collected and measured for TNF or IP-10.

[6] = test system: RA synovial membrane cultures; assay: Spontaneous cytokine release from RA synovial membrane cultures (ELISA); format: cell-based, human; conditions: 10 μg/ml, 20 μg/ml and 30 μg/ml
Method: as §1, with “hours.” for “hours. All reagents other than LPS were free from LPS contamination as assessed using the limulus amebocyte lysate (LAL) assay from Cambrex (USA).”
as §2, §3
Rheumatoid arthritis synovial membrane cells were cultured for 24 hours in the presence of media alone or media containing 30 μg/ml mianserine hydrochloride. Supernatants were harvested and levels of cytokines (A) TNF (n=16) were measured by ELISA. […] A students paired t-test was used to analyse the data.

[7] = 5 μg/ml, 30 minutes preincubation
[8] = 30 μg/ml, 10 ng/ml LPS for 6 hours
[9] = dose dependant, best inhibition at 100 μM, 24 hours, n=4

For `NCCc1c[nH]c2ccc(O)cc12` [serotonin (5-HT), 5-hydroxytryptamine], which “inhibition of R-848 induced TNF production (TLR8 signaling)” value ([1]; 10 or 100 μM, 30 minute preincubation) is on record?
The value was “not inhibited”.

Which “TNF production increased on stimulation” value ([2]; 1 μg/ml, TLR7/8 ligand, P<0.0001, n=11) does the source give for `CCOCc1nc2c(N)nc3ccccc3c2n1CC(C)(C)O` [R-848, resiquimod] here?
Its value is 515%±76.

What does the source list for `CC[N+](C)(CC)CCC[n+]1c(-c2ccccc2)c2cc(N)ccc2c2ccc(N)cc21.[I-].[I-]` [Propidium iodide]?
inhibition of LPS induced TNF production ([3]; 5 μg/ml, LPS for 6 hours): None of the drugs tested were able to inhibit; inhibition of spontaneous TNF production ([4]; 5 μg/ml, 24 hours): did not lead to a significant decrease; inhibition of Poly IC induced IP-10 production ([5]; 5 μg/ml, poly IC for 6 hours): able to inhibit; inhibition of R-848 induced TNF production [1, 7]: only the serotonin receptor antagonists (mianserine hydrochloride and promazine hydrochloride) were able to suppress

How did the “stimulation of cytokine release over spontaneous levels” value ([2]; 1 μg/ml, TLR7 ligand) turn out when `CC(C)Cn1cnc2c(N)nc3ccccc3c21` [imiquimod] was run?
The value was “unable to stimulate further release of cytokines”.

For Poly IC, which “TNF production increased on stimulation” value ([2]; 20 μg/ml, TLR3 ligand, P=0.0002, n=12) is on record?
Its value is 334%±60.

`Cc1nc2sccn2c(=O)c1CCN1CCC(=C(c2ccc(F)cc2)c2ccc(F)cc2)CC1` [ritanserin] was tested. Which “inhibition of spontaneous TNF production” value ([4]; 5 μg/ml, 24 hours) did it give?
The value was “able to inhibit”.

And the “inhibition of R-848 induced TNF production” value [1, 7]?
The value was “able to inhibit”.

How did the “inhibition of LPS induced TNF production” value [3, 8] turn out when `CN(C)CCCN1c2ccccc2Sc2ccccc21` [promazine hydrochloride] was run?
The value was “None of the drugs tested were able to inhibit”.

What about the “inhibition of TNF, dose dependence” value [6] of the same compound?
The value was “dose dependently inhibited”.

What about the “inhibition of Poly IC induced IP-10 production” value ([5]; 30 μg/ml, 20 μg/ml poly IC for 6 hours, hydrochloride) of the same compound?
Its value is “inhibits TLR3 induced signalling; also recorded: able to inhibit”.

What about the “inhibition of R-848 induced TNF production” value ([1]; 30 μg/ml, 30 minutes preincubation, hydrochloride) of the same compound?
The value was “able to suppress”.

And the “inhibition of R-848 induced TNF production” value ([1]; 30 μg/ml, 30 minutes preincubation, listed as Promazine hydrochloride, hydrochloride)?
The value was “decreased TNF production”.

`Cc1nccn1CC1CCc2c(c3ccccc3n2C)C1=O` (stereo not shown) [ondansetron] was tested. Which “inhibition of LPS induced TNF production” value [3, 8] did it give?
Its value is “not”.

And the “inhibition of spontaneous TNF production” value ([4]; 20 μg/ml, 24 hours)?
Its value is “able to inhibit; also recorded: significant inhibition”.

What about the “inhibition of R-848 induced TNF production” value ([1]; 30 μg/ml, 30 minutes preincubation) of the same compound?
Its value is “significantly inhibits”.

And the “inhibition of R-848 induced TNF production” value ([1]; 30 μg/ml, 30 minutes preincubation, listed as Ondansetron)?
The value was “able to inhibit”.

What about the “inhibition of R-848 induced TNF production, dose dependence” value ([1]; 5, 10 or 20 μg/ml, 30 minutes preincubation) of the same compound?
The value was “dose dependant inhibition”.

What does the source list for Chloroquine diphosphate salt?
inhibition of spontaneous IL-1 release [4, 9]: inhibited; inhibition of spontaneous TNF release [4, 9]: inhibited

What does the source list for `CN1C[C@H](CNC(=O)OCc2ccccc2)C[C@@H]2c3cccc4c3c(cn4C)C[C@H]21` [metergoline]?
inhibition of spontaneous TNF production ([4]; 10 μg/ml, 24 hours): able to inhibit; inhibition of R-848 induced TNF production ([1]; 10 μg/ml, 30 minutes preincubation): able to inhibit

With ketanserine tartrate as the compound, how does the “inhibition of TNF, dose dependence” value ([4]; 10 μM, 100 μM) read?
Its value is “dose dependently inhibited”.

`CSc1ccc2c(c1)C(N1CCN(C)CC1)Cc1ccccc1S2` (stereo not shown) [methiothepin] was tested. Which “inhibition of spontaneous TNF production” value ([4]; 5 μg/ml, 24 hours) did it give?
The value was “able to inhibit”.

And the “inhibition of R-848 induced TNF production” value [1, 7]?
The value was “able to inhibit”.

What does the source list for `Clc1ccccc1C(c1ccccc1)(c1ccccc1)n1ccnc1` [clotrimazole, Clotrimazole]?
inhibition of LPS induced TNF production ([3]; 5 μg/ml, LPS for 6 hours): None of the drugs tested were able to inhibit; inhibition of spontaneous TNF production ([4]; 5 μg/ml, 24 hours): did not lead to a significant decrease; inhibition of Poly IC induced IP-10 production ([5]; 5 μg/ml, poly IC for 6 hours): able to inhibit; inhibition of R-848 induced TNF production [1, 7]: only the serotonin receptor antagonists (mianserine hydrochloride and promazine hydrochloride) were able to suppress
